Laboratory results reported in patent publication US20240294541A1, “COMPOUNDS CONSTITUTING C20-MODIFIED SALINOMYCIN DERIVATIVES, A METHOD FOR OBTAINING THE SAME, A COMPOSITION CONTAINING THE SAME AND A USE OF SAID COMPOUNDS” (FILECLO SPOLKA Z OGRANICZONA ODPOWIEDZIALNOSCIA, priority 2021, published 2024).
Read-outs that look alike come from different tables or passages of the source.

Legend:
Assay type in all cases: cell-based
[1] = system: SNU-16 (human gastric cancer); assay: cells; details: for IC50: Homo sapiens, SNU-16, 72 h with compound, MTT, n/a = non-active compound, read-out: SNU-16 IC50; for SNU-16 SI: selectivity coefficient vs normal BALB/3T3 cells
[2] = system: NCI-H23 (human lung cancer); assay: In vitro cytotoxicity, SRB assay, NCI-H23; details: for IC50: Homo sapiens; for NCI-H23 SI: selectivity coefficient vs normal BALB/3T3 cells
[3] = system: MIA PaCa-2 (human pancreatic cancer); assay: cells; details: for IC50: Homo sapiens, MIA PaCa-2, 72 h with compound, SRB, n/a = non-active compound, read-out: MIA PaCa-2 IC50; for MIA PaCa-2 SI: selectivity coefficient vs normal BALB/3T3 cells
[4] = system: BALB/3T3 (normal mouse fibroblasts); assay: In vitro cytotoxicity, SRB assay, normal BALB/3T3 fibroblasts
[5] = system: Hs294T (human melanoma); assay: cells; details: for IC50: Homo sapiens, Hs 294T, 72 h with compound, SRB, n/a = non-active compound, read-out: Hs294T IC50; for Hs294T SI: selectivity coefficient vs normal BALB/3T3 cells
[6] = system: cancer cells; assay: In vitro cytotoxic activity on the panel of cancer cell lines (MTT/SRB), general statements; details: for anti-proliferative effect compared to that of the parent compound: Tables 3.1, 3.2, 4 and 5, parent compound salinomycin
[7] = system: A2780Cis (cisplatin-resistant human ovarian cancer); assay: In vitro cytotoxicity, SRB assay, A2780Cis; details: for IC50: Homo sapiens, A2780cis
[8] = system: PFSK-1 (malignant primitive neuroectodermal tumour); assay: In vitro cytotoxicity, SRB assay, PFSK-1; details: for IC50: Homo sapiens; for PFSK-1 SI: selectivity coefficient vs normal BALB/3T3 cells
[9] = system: PLC/PRF/5 (human liver cancer); assay: cells; details: for IC50: Homo sapiens, PLC-PRF-5, 72 h with compound, SRB, n/a = non-active compound, read-out: PLC/PRF/5 IC50; for PLC/PRF/5 SI: selectivity coefficient vs normal BALB/3T3 cells
[10] = system: KG-1 (human acute myeloid leukaemia); assay: In vitro cytotoxicity, MTT assay, KG-1; details: for IC50: Homo sapiens, 72 h with compound, MTT, n/a = non-active compound; for KG-1 SI: selectivity coefficient vs normal BALB/3T3 cells
[11] = system: A375 (human melanoma); assay: In vitro cytotoxicity, SRB assay, A375; details: for IC50: Homo sapiens; for A375 SI: selectivity coefficient vs normal BALB/3T3 cells
[12] = system: A2780 (human ovarian cancer); assay: In vitro cytotoxicity, SRB assay, A2780; details: for IC50: Homo sapiens; for A2780 SI: selectivity coefficient vs normal BALB/3T3 cells
[13] = NCI-H23, 72 h with compound, SRB, n/a = non-active compound, read-out: NCI-H23 IC50
[14] = Mus musculus, BALB/3T3, normal cells, 72 h with compound, SRB, n/a = non-active compound, read-out: BALB/3T3 IC50
[15] = 72 h, read-out: A2780Cis IC50 (nM)
[16] = PFSK-1, 72 h with compound, SRB, n/a = non-active compound, read-out: PFSK-1 IC50
[17] = A-375, 72 h with compound, SRB, n/a = non-active compound, read-out: A375 IC50
[18] = A2780, 72 h with compound, SRB, n/a = non-active compound, read-out: A2780 IC50

SMILES | IC50 [1] | SNU-16 SI [1] | IC50 [2, 13] | NCI-H23 SI [2] | IC50 [3] | MIA PaCa-2 SI [3] | IC50 [4, 14] | IC50 [5] | Hs294T SI [5] | anti-proliferative effect compared to that of the parent compound [6] | A2780Cis RI [7] | A2780Cis SI [7] | IC50 [7, 15] | PFSK-1 SI [8] | IC50 [9] | PLC/PRF/5 SI [9] | IC50 [10] | KG-1 SI [10] | A375 SI [11] | A2780 SI [12] | further results
CC[C@@H](C(=O)[C@@H](C)[C@@H](O)[C@H](C)[C@@H]1O[C@@H]([C@@H](CC)C(=O)O)CC[C@@H]1C)[C@H]1O[C@]2(C=C[C@@H](NC(=O)NC3CCC3)[C@]3(CC[C@@](C)([C@H]4CC[C@](O)(CC)[C@H](C)O4)O3)O2)[C@H](C)C[C@@H]1C [FLC-00341-1 Na] | 0.0271 µM | 3.5 | 318 nM | 0.3 | 0.0554 µM | 1.7 | 96.2 nM | 1.64 µM | 0.1 | several times more potent compared to that of the parent compound | 0.8 | 73.9 | 1.3 nM | 1.9 | 0.0545 µM | 1.8 | 0.0459 µM | 2.1 | 0.3 | 59.2 | IC50 [8, 16]: 51.6 nM; IC50 [11, 17]: 293 nM; IC50 [12, 18]: 1.62 nM
CC[C@@H](C(=O)[C@@H](C)[C@@H](O)[C@H](C)[C@@H]1O[C@@H]([C@@H](CC)C(=O)O)CC[C@@H]1C)[C@H]1O[C@]2(C=C[C@@H](NC(=S)NCCCSC)[C@]3(CC[C@@](C)([C@H]4CC[C@](O)(CC)[C@H](C)O4)O3)O2)[C@H](C)C[C@@H]1C [FLC-00345-1] | 0.026 µM | 2.6 | 46.5 nM | 1.5 | 0.111 µM | 0.6 | 68.4 nM | 0.396 µM | 0.2 | several times more potent compared to that of the parent compound | 0.8 | 96.6 | 0.71 nM | 5.6 | 0.028 µM | 2.4 | 0.0392 µM | 1.7 | 0.2 | 81.2 | IC50 [8, 16]: 12.3 nM; IC50 [11, 17]: 400 nM; IC50 [12, 18]: 0.84 nM
CC[C@@H](C(=O)[C@@H](C)[C@@H](O)[C@H](C)[C@@H]1O[C@@H]([C@@H](CC)C(=O)O)CC[C@@H]1C)[C@H]1O[C@]2(C=C[C@@H](NC(=S)NCc3ccccc3)[C@]3(CC[C@@](C)([C@H]4CC[C@](O)(CC)[C@H](C)O4)O3)O2)[C@H](C)C[C@@H]1C [FLC-00346-1] | 0.00452 µM | 15.2 |  | 1.1 | 0.0433 µM | 1.6 | 68.8 nM | 0.388 µM | 0.2 | several times more potent compared to that of the parent compound | 0.2 | 487.1 | 0.14 nM | 2.7 | 0.0058 µM | 11.9 | 0.0209 µM | 3.3 | 0.2 | 96.4 | IC50 ([2]; NCI-H23, 72 h, read-out: NCI-H23 IC50 (nM)): 60.3 nM; IC50 ([8]; PFSK-1, 72 h, read-out: PFSK-1 IC50 (nM)): 25.1 nM; IC50 ([11]; A-375, 72 h, read-out: A375 IC50 (nM)): 393 nM; IC50 ([12]; A2780, 72 h, read-out: A2780 IC50 (nM)): 0.71 nM
CC[C@@H](C(=O)[C@@H](C)[C@@H](O)[C@H](C)[C@@H]1O[C@@H]([C@@H](CC)C(=O)O)CC[C@@H]1C)[C@H]1O[C@]2(C=C[C@@H](NC(=S)Nc3ccc(C(F)(F)F)cc3)[C@]3(CC[C@@](C)([C@H]4CC[C@](O)(CC)[C@H](C)O4)O3)O2)[C@H](C)C[C@@H]1C [FLC-00347-1] | 0.0135 µM | 5.4 | 5.51 nM | 13.3 | 0.0443 µM | 1.7 | 73.2 nM | 0.103 µM | 0.7 | several times more potent compared to that of the parent compound | 0.3 | 264.7 | 0.28 nM | 16.1 | 0.00587 µM | 12.5 | 0.0141 µM | 5.2 | 0.8 | 79.0 | IC50 [8, 16]: 4.54 nM; IC50 [11, 17]: 91.2 nM; IC50 [12, 18]: 0.93 nM
CCCCCCCCNC(=O)N[C@@H]1C=C[C@]2(O[C@H]([C@@H](CC)C(=O)[C@@H](C)[C@@H](O)[C@H](C)[C@@H]3O[C@@H]([C@@H](CC)C(=O)O)CC[C@@H]3C)[C@@H](C)C[C@H]2C)O[C@@]12CC[C@@](C)([C@H]1CC[C@](O)(CC)[C@H](C)O1)O2 [FLC-00366-1] | 0.00864 µM | 13.3 | 5.78 nM | 19.8 | 0.045 µM | 2.5 | 115 nM | 0.214 µM | 0.5 |  | 0.2 | 550.8 | 0.21 nM | 25.3 | 0.00562 µM | 20.4 | 0.0406 µM | 2.8 | 1.7 | 128.0 | IC50 ([4]; Table 5, BALB/3T3 normal mouse fibroblasts, read-out: IC50 (nM) BALB3T3 normal cells): 115 nM; biological properties (IC50, SI) compared to the corresponding epi compounds ([6]; table 5 comparative examples, retained vs inverted C20 configuration): improved biological properties compared to their counterparts with a configuration conversion; SI A2780Cis [7]: 550.8; IC50 ([7]; read-out: IC50 (nM) A2780Cis): 0.21 nM; IC50 [8, 16]: 4.53 nM; IC50 [11, 17]: 69.4 nM; IC50 [12, 18]: 0.9 nM
